{
  "source": "patent US20080255121A1",
  "about": "“Combination Drug for Treating Autoimmune Disease” (DAINIPPON SUMITOMO PHARMA CO., LTD., priority 2004, published 2008)",
  "key": {"cyclin D1": {"tested_on": "cyclin D1", "assay": "Expression of cyclin D1 in bFGF stimulated fibroblasts (Western blotting)", "type": "cell-based, mouse", "settings": "Compound (I) 1.25 to 20 μM, KN-93 5 to 20 μM; L929 cells; FIG. 18", "method": "Effects of Compound (I) and KN-93 on effect on the expression of cyclin D1 and the phosphorylation of Akt when fibroblasts were stimulated with basic fibroblast growth factor (bFGF) were evaluated.\nL929 cells (mouse fibroblast cell line) were cultured in MEM-Earl medium (E-MEM: GIBCO, Inc.) containing 10% fetal bovine serum and subjected to the experiment. The cells were suspended in a serum-free E-MEM and cultured for 72 hours. An E-MEM medium containing the test substance was added and incubated for 1 hour, and an E-MEM medium containing recombinant human FGF basic (bFGF) as a stimulant was added and further incubated. The cells were lysed in a RIPA buffer and a total cell lysate was obtained. After performing SDS-PAGE, proteins were transferred onto a PVDF membrane and western blotting was performed with anti-cyclin antibody or anti-Akt antibody (both available from Santa Cruz, Inc.)."}, "J774A.1 cells": {"tested_on": "J774A.1 cells", "assay": "IL-6 production when macrophages were stimulated with LPS", "type": "cell-based, mouse", "settings": "Compound (I) 1 to 30 μM, KN-93 1 to 3 μM; 24 hours; FIG. 2", "method": "Effects of Compound (I) and KN-93 on IL-6 production when macrophages were stimulated with lipopolysaccharide (LPS) were evaluated.\nJ774A.1 cells (mouse macrophage cell line) were cultured in Dulbecco's Modified Eagle Medium (DMEM: GIBCO, Inc.) containing 10% fetal bovine serum and subjected to the experiment. The cells were disseminated in 96-well plate in a ratio of 5×10^4 cells/well and a DMEM medium containing the test substance and a DMEM medium containing LPS as a stimulant were added and incubated for 24 hours. The concentration was adjusted so that the final concentrations of the test substances and stimulants were 1 to 30 μM for Compound (I), 1 to 3 μM for KN-93 and 1 μg/ml for LPS. The plate was centrifuged after incubation and the supernatant was collected with micropipette. The concentration of IL-6 in the supernatant was quantified by Enzyme-linked Immunosorbent Assay (ELISA) method. The quantitative method was carried out in accordance with the instructions attached to the kit (MOUSE IL-6 Immunoassay, R & D Systems)."}, "EL-4 cells": {"tested_on": "EL-4 cells", "assay": "IL-2 production when T-lymphocytes were stimulated with PMA and A23187", "type": "cell-based, mouse", "settings": "Compound (I) 1 to 30 μM, KN-93 1 to 10 μM; 20 hours; FIG. 1", "method": "Effects of Compound (I) and KN-93 on IL-2 production when T-lymphocytes were stimulated with Phorbol 12-myristate 13-acetate (PMA) and Calcium Ionophore A23187 were evaluated.\nEL-4 cells (mouse T-lymphocyte cell line) were cultured in Dulbecco's Modified Eagle Medium (DMEM: GIBCO, Inc.) containing 10% fetal bovine serum and subjected to the experiment. The cells were disseminated in 96-well plate in a ratio of 5×10^4 cells/well and a DMEM medium containing the test substance and a DMEM medium containing PMA and A23187 as a stimulant were added and incubated for 20 hours. The concentration was adjusted so that the final concentrations of the test substances and stimulants were 1 to 30 μM for Compound (I), 1 to 10 μM for KN-93, 25 ng/ml for PMA and 250 ng/ml for A23187. The plate was centrifuged after incubation and the supernatant was collected with micropipette. The concentration of IL-2 in the supernatant was quantified by Enzyme-linked Immunosorbent Assay (ELISA) method. The quantitative method was carried out in accordance with the instructions attached to the kit (MOUSE IL-2 Immunoassay, R & D Systems)."}, "human CaMKII γ": {"tested_on": "human CaMKII γ", "assay": "Examination of CaMKII inhibitory activity (2)", "type": "biochemical", "method": "Test substances were dissolved in DMSO and diluted to various concentrations with a buffer solution (50 mM Tris-HCl: pH 7.5, 10 mM MgCl2, 1 mM Dithiothreitol (DTT)) (all of them are available from Nacalai Tesque, Inc.) for CaMKII reaction. CaMKIIα (final concentration 0.75 μg/ml) (Santa Cruz, Inc.) derived from rat was mixed with Autocamtide-2® (40 μM) (CALBIOCHEM Company) dissolved in CaMKII reaction buffer solution in the presence of the test substance and with CaMKII activation buffer solution (1 mMCaCl2, 1 μM calmodulin) (Nacalai Tesque, Inc.) and the reaction was started by further adding ATP (50 μM) (Nacalai Tesque, Inc.). The reaction was performed at 30° C. for five minutes and then SDS-PAGE sample buffer solution was added and the reaction was terminated by boiling for five minutes. Proteins in the reaction mixture were separated by 15% SDS-PAGE and blotted onto a PVDF membrane. Phosphorus taken in by Autocamtide-2 was reacted with an anti-phosphorylated serine/threonine antibody (Santa Cruz, Inc.) and quantified by ECL system (Amersham, Inc.) and NIH Image (downloadable from http://rsb.info.nih.gov/nih-image/).\nCaMKII γ gene was prepared by PCR method using two kinds of primers (5′-TC GGATCCAGCATGGCCACCACCGCCACCTG-3′ [SEQ ID NO 4] and 5′-TA GAATTCACACTGCAGCGGTGCGGCAGG [SEQ ID NO 5]) synthesized based on the sequence of GenBank Accession No. L07044 and cDNA derived from cultured cells (JurketT cells) prepared by a conventional method as a template. The CaMKII γ gene was excised by BamHI and EcoRI and introduced into the MCS of pFastBacl transfer vector. Expression virus was prepared and amplified based on this vector. The details followed the manual of Bac-to-Bac baculovirus expression system (Invitrogen, Inc.). Expressed CaMKII γ was purified in accordance with the method described in literature (Biochemical & Biophysical Research Communications, 173(2): 578-84, 1990). That is, expression cells were pulverized by supersonic wave and preparation was performed by affinity refinement with calmodulin sepharose (Amasham Biosciences, Inc.) from cell soluble fraction obtained by centrifugal operation via ammonium sulfate fraction of final concentration of 60%. Confirmation of expression was performed by Western blotting method using anti-CaMKII γ specific antibody, sc1541 (Santa Cruz, Inc.).\nCaMKII γ inhibitory activity of test substances were measured in the same conditions as in Example 1 except human CaMKII γ prepared by the above procedure was used in place of CaMKII α derived from rat."}},
  "data": [
    {"smiles": "C[C@@H](c1ccc(-c2ccccc2)c(F)c1)c1cc(/N=C(/N)N2CCOCC2)on1", "note": "[Compound (I), 3-[(1S)-1-(2-fluorobiphenyl-4-yl)ethyl]-5-{[amino(morpholin-4-yl)methylene]amino}isoxazole]", "values": [
      {"measurement": "enhanced expression of cyclin D1", "setting": "cyclin D1", "result": "suppressed the enhanced expression of cyclin D1"},
      {"measurement": "production of IL-6", "setting": "J774A.1 cells", "result": "suppressed production of IL-6 dose-dependently"},
      {"measurement": "production of IL-2", "setting": "EL-4 cells", "result": "suppressed production of IL-2 dose-dependently"},
      {"measurement": "concentration with an effect of inhibiting the activity of CaMKII", "setting": "human CaMKII γ", "result": "≥ 10", "unit": "µM"},
      {"measurement": "Inhibition rate (%)", "setting": "human CaMKII γ; Concentration 1 μm", "result": 7, "unit": "%"},
      {"measurement": "Inhibition rate (%)", "setting": "human CaMKII γ; Concentration 10 μm", "result": 33, "unit": "%"},
      {"measurement": "Inhibition rate (%)", "setting": "human CaMKII γ; Concentration 30 μm", "result": 57, "unit": "%"}
    ]},
    {"smiles": "COc1ccc(S(=O)(=O)N(CCO)c2ccccc2CN(C)C/C=C/c2ccc(Cl)cc2)cc1", "note": "[KN-93, N-(2-[N-[4-chlorocinnamyl]-N-methylaminomethyl]phenyl)-N-(2-hydroxyethyl)-4-methoxybenzenesulfonamide, reference compound]", "values": [
      {"measurement": "enhanced expression of cyclin D1", "setting": "cyclin D1", "result": "suppressed the enhanced expression of cyclin D1"},
      {"measurement": "production of IL-6", "setting": "J774A.1 cells", "result": "suppressed production of IL-6 dose-dependently"},
      {"measurement": "production of IL-2", "setting": "EL-4 cells", "result": "suppressed production of IL-2 dose-dependently"},
      {"measurement": "concentration with an effect of inhibiting the activity of CaMKII", "setting": "human CaMKII γ", "result": "≥ 1", "unit": "µM"},
      {"measurement": "Inhibition rate (%)", "setting": "human CaMKII γ; Concentration 1 μm", "result": 27, "unit": "%"},
      {"measurement": "Inhibition rate (%)", "setting": "human CaMKII γ; Concentration 10 μm", "result": 101, "unit": "%"},
      {"measurement": "Inhibition rate (%)", "setting": "human CaMKII γ; Concentration 30 μm", "result": 107, "unit": "%"}
    ]}
  ]
}
